# Source: patent US8586550B2, “Thiazole derivatives as SGLT2 inhibitors and pharmaceutical composition comprising same” (Green Cross Corporation, priority 2010, dated 2013)
# Target: T1, Human SGLT2 (hSGLT2) (Homo sapiens, UniProt P31639)
# T1 construct: expressed in transfected cells
# T1 sequence (P31639 1-672): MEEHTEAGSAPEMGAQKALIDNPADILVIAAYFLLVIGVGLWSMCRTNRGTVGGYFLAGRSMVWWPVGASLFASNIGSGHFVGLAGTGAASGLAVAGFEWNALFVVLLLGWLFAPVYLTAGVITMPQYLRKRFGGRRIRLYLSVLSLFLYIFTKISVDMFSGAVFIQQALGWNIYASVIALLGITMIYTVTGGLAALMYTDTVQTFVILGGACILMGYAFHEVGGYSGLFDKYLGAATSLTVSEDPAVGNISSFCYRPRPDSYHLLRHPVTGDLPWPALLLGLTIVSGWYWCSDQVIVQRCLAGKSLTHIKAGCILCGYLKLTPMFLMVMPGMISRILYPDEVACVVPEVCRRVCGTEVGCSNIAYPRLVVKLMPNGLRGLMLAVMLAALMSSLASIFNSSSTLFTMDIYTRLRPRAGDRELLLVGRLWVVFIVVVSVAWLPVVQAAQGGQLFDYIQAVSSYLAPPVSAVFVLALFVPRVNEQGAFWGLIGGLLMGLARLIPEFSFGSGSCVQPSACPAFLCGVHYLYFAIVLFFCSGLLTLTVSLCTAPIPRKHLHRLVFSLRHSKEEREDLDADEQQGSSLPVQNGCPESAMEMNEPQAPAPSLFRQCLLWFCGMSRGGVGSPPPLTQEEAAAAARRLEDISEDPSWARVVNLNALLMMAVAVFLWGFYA
# Assay: Sodium-dependent glucose transport (14C-AMG uptake) assay in CHO cells stably expressing hSGLT2
# Type: cell-based
# Settings: CHO cells expressing hSGLT2, 14C-AMG uptake, 37° C. for 2 h; single determinations; read-out: hSGLT2 Inhibitory Activity IC50
# Summary of the method: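 Uptake of 14C-α-methyl-D-glucopyranoside (8 μM labeled, 1 mM unlabeled, NaCl buffer pH 7.4) measured over 2 h at 37 °C with inhibitor in hSGLT2-transfected CHO cells after 10 min choline-buffer pretreatment. Radioactivity by liquid scintillation; IC50 from nonlinear regression.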
row,Compound,IC50
1,"OC[C@H]1O[C@@H](c2ccc(Cl)c(Cc3cnc(-c4cocn4)s3)c2)[C@H](O)[C@@H](O)[C@@H]1O [Example 191, (2S,3R,4R,5S,6R)-2-(4-Chloro-3-((2-(oxazol-4-yl)thiazol-5-yl)methyl)phenyl)-6-(hydroxymethyl)tetrahydro-2H-pyran-3,4,5-triol]",45.4 nM
2,"OC[C@H]1O[C@@H](c2ccc(Cl)c(Cc3cnc(-c4ccno4)s3)c2)[C@H](O)[C@@H](O)[C@@H]1O [Example 192, (2S,3R,4R,5S,6R)-2-(4-Chloro-3-((2-(isoxazol-5-yl)thiazol-5-yl)methyl)phenyl)-6-(hydroxymethyl)tetrahydro-2H-pyran-3,4,5-triol]",20.2 nM
3,"OC[C@H]1O[C@@H](c2ccc(Cl)c(Cc3cnc(-c4cscn4)s3)c2)[C@H](O)[C@@H](O)[C@@H]1O [Example 193, (2S,3R,4R,5S,6R)-2-(3-(2,4′-Bithiazol-5-ylmethyl)-4-chlorophenyl)-6-(hydroxymethyl)tetrahydro-2H-pyran-3,4,5-triol]",17.7 nM
4,"CSc1ncc(Cc2cc([C@@H]3O[C@H](CO)[C@@H](O)[C@H](O)[C@H]3O)ccc2Cl)s1 [Example 197, (2S,3R,4R,5S,6R)-2-(4-Chloro-3-((2-(methylthio)thiazol-5-yl)methyl)phenyl)-6-(hydroxymethyl)tetrahydro-2H-pyran-3,4,5-triol]",9.48 nM
5,"CCCSc1ncc(Cc2cc([C@@H]3O[C@H](CO)[C@@H](O)[C@H](O)[C@H]3O)ccc2Cl)s1 [Example 198, (2S,3R,4R,5S,6R)-2-(4-Chloro-3-((2-(propylthio)thiazol-5-yl)methyl)phenyl)-6-(hydroxymethyl)tetrahydro-2H-pyran-3,4,5-triol]",15.4 nM

# Stronger by IC50, values ahead:
row,IC50,Compound
1,6.39 nM,"OC[C@H]1O[C@@H](c2ccc(Cl)c(Cc3cnc(-c4ccc(F)cc4)s3)c2)[C@H](O)[C@@H](O)[C@@H]1O [Example 194, (2S,3R,4R,5S,6R)-2-(4-Chloro-3-((2-(4-fluorophenyl)thiazol-5-yl)methyl)phenyl)-6-(hydroxymethyl)tetrahydro-2H-pyran-3,4,5-triol]"
2,4.35 nM,OC[C@H]1O[C@@H](c2ccc(Cl)c(Cc3cnc(-c4cnccn4)s3)c2)[C@H](O)[C@@H](O)[C@@H]1O [Example 195]
3,1.39 nM,"OC[C@H]1O[C@@H](c2cc(Cc3cnc(-c4ccsc4)s3)c(Cl)cc2F)[C@H](O)[C@@H](O)[C@@H]1O [Example 203, (2S,3R,4R,5S,6R)-2-(4-Chloro-2-fluoro-5-((2-(thiophen-3-yl)thiazol-5-yl)methyl)phenyl)-6-(hydroxymethyl)tetrahydro-2H-pyran-3,4,5-triol]"
4,3.66 nM,"(2S,3R,4R,5S,6R)-2-(4-Chloro-2-ethoxy-5-((5-(furan-3-yl)thiazol-2-yl)methyl)phenyl)-6-(hydroxymethyl)tetrahydro-2H-pyran-3,4,5-triol [Example 31]"
5,1.18 nM,"(2S,3R,4R,5S,6R)-2-(4-Chloro-2-ethoxy-5-((5-(thiophen-3-yl)thiazol-2-yl)methyl)phenyl)-6-(hydroxymethyl)tetrahydro-2H-pyran-3,4,5-triol [Example 80]"
6,1.59 nM,"(2S,3R,4R,5S,6R)-2-(4-Chloro-3-((4-phenylthiazol-2-yl)methyl)phenyl)-6-(hydroxymethyl)tetrahydro-2H-pyran-3,4,5-triol [Example 71]"
7,7.36 nM,"(2S,3R,4R,5S,6R)-2-(4-Fluoro-3-((5-(thiazol-3-yl)thiazol-2-yl)methyl)phenyl)-6-(hydroxymethyl)tetrahydro-2H-pyran-3,4,5-triol [Example 43]"
